The target of one assay is Large T antigen (Simian virus 40, UniProt P03070). Format: functional, Betapolyomavirus macacae.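 Also: Confirmatory-stage PubChem screen for compounds that inhibit SV40 T antigen.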
Assay [1] can be described thus: cells. Type of assay: functional.
The nature of assay [2]: Luminescence Cell-Based Dose Response HTS to Identify Activators of Luciferase Translation or Activity in H4 […] Cells. [Related pubchem assays: 1829 (Project Summary), 1814 (Primary HTS)]. Type of assay: functional.
The test system of the next assay is H4. As to the kind of experiment: Luminescence Cell-Based Dose Response HTS to Identify Activators of 5'UTR Stem-Loop Driven Prion Protein mRNA Translation in H4 Neuroglioblastoma Cells. [Related pubchem assays: 1829 (Project Summary), 1814 (Primary HTS)]. Format: functional. The following applies: Homo sapiens.
Assay [3] concerns the target FAD-linked sulfhydryl oxidase ALR (Homo sapiens, UniProt P55789). As to the kind of experiment: ALR-catalysed DTT oxidation blockers – biochemical, H2O2 detection, luminescence, cherry-pick, dose response (AID 493248).
Assay [4] deals with T1, Microphthalmia-associated transcription factor (Homo sapiens, UniProt O75030).
T1 sequence (O75030 whole entry): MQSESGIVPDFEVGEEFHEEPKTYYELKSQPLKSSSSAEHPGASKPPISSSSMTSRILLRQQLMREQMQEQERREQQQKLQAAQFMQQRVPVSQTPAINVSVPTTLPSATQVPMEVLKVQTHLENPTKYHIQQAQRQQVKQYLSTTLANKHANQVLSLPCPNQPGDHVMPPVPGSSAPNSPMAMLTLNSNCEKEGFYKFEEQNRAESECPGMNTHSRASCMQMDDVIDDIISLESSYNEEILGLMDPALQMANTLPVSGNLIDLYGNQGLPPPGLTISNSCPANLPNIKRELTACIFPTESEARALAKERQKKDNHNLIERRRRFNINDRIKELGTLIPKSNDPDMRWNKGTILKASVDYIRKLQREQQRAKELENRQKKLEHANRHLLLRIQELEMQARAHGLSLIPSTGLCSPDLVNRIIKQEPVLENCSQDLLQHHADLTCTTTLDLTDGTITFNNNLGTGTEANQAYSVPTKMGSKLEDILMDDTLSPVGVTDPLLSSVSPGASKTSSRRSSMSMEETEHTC
As to the kind of experiment: reducers of TRPM1 reporter luminescence, concentration series – cell-based, SK-MEL-5, cherry-picked, set 3, MITF inhibitor project, dose response (AID 493073).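 Also: SK-MEL-5 melanoma cells with luciferase driven by the MITF target TRPM1 promoter.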 Type of assay: functional.

Assay [5] can be described thus: cells. Format: functional, cell-based.
Assay [6] in a line: cells. Type of assay: functional, cell-based. This is another data set of the same source.
A further assay concerns the target T2, Protein skinhead-1 (Caenorhabditis elegans, UniProt P34707).
T2 sequence (P34707 whole entry): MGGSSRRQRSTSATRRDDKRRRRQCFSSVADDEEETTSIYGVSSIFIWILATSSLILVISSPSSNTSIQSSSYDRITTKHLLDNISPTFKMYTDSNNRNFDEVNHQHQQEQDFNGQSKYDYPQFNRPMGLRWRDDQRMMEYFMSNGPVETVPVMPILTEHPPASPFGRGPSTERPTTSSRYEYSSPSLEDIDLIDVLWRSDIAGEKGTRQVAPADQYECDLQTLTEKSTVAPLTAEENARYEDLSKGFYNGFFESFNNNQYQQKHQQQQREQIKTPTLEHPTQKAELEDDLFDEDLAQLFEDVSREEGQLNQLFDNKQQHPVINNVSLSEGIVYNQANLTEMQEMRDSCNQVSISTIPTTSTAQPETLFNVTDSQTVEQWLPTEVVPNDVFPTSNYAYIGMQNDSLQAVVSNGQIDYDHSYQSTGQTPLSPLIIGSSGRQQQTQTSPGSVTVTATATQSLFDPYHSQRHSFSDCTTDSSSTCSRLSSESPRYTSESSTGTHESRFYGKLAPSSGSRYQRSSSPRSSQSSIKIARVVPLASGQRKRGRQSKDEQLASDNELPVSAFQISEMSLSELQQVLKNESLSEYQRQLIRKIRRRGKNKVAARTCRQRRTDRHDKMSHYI
Format: functional.

Assay [7] concerns the target T3, Heat shock factor protein 1 (Mus musculus, UniProt P38532).
T3 sequence (P38532 whole entry): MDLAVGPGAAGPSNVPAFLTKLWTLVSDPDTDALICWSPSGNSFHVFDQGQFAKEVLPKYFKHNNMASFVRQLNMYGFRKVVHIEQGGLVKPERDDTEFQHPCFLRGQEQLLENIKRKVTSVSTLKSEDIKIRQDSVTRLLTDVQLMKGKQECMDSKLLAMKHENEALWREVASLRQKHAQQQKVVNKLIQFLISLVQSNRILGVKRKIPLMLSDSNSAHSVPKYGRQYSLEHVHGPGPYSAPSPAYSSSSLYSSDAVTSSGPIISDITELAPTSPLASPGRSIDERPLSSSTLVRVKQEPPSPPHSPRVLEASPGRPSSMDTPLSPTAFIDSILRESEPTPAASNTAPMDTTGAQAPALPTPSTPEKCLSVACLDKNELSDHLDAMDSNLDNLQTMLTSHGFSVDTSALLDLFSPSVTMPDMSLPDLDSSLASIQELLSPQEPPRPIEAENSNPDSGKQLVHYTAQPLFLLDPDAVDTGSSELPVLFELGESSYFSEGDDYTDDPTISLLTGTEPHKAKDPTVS
As to the kind of experiment: decrease of HSF1-responsive luciferase luminescence – cell-based, NIH3T3, dose retest, confirmation (AID 2382).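 Also: NIH3T3 fibroblasts with HSF1-driven luciferase reporter stressed by proteasome inhibitor MG132; luminescence from HSF1-driven luciferase expression after 8 hours of MG132 stress.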 Format: functional.

Assay [8] in a line: viability of uninfected HEp-2 cells – cell-based, HTS, cytotoxicity control for RSV inhibitor project, dose response (AID 2410). Format: functional. To be noted: human respiratory syncytial virus.
Assay [9] relates to Streptococcus sp. 'group A'. As to the kind of experiment: Streptococcus pyogenes SK(-)GAS viability under kanamycin – luminescence, BacTiterGlo, confirmation, counter-screen for streptokinase expression inhibitor project, dose response (AID 1900). Type of assay: functional, organism-based.
The next assay has as its target T4, Streptokinase A (Streptococcus pyogenes serotype M1, UniProt P10520).
T4 sequence (P10520 whole entry): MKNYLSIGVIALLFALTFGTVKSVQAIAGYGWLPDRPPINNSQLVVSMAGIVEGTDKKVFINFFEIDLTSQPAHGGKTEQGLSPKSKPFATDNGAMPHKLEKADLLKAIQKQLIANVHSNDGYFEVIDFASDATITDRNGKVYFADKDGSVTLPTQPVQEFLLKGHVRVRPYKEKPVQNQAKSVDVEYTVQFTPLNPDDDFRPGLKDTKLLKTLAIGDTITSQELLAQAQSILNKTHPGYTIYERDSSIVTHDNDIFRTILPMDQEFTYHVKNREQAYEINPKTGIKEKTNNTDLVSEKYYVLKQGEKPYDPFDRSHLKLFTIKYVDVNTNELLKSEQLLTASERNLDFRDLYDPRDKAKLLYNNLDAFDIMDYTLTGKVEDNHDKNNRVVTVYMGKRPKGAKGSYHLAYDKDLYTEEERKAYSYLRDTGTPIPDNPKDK
Description: viability-normalized secreted streptokinase activity reduction – plasminogen activation absorbance, OD405, dose response (AID 1914).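 Also: secreted streptokinase activity via plasminogen activation per viability signal from cell pellet.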 Type of assay: functional, Streptococcus pyogenes M1 GAS.

The subject of another assay is Streptococcus. Description: GAS UMAA2166 growth inhibition – luminescence, BacTiterGlo, counter-screen for streptokinase expression inhibitor project, dose response (AID 1915).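 Also: potency for reduction of bacterial viability or growth.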 Type of assay: functional, organism-based.
Assay [10] is described as follows: Luminescence Cell-Based Dose Retest to Confirm Inhibitors of Cancer Stem Cells. [Related pubchem assays (depositor defined):AID2717, AID2721]. Format: functional. The following applies: Homo sapiens.
The nature of assay [11]: non-specific 3'UTR reporter inhibition in Clone20-Shn3RL – cell-based, Renilla luciferase, cherry-picked, counter-screen for Shn3 inhibitor project, dose response (AID 624133). Format: functional.
A further assay addresses Cytochrome P450 2D6 (Homo sapiens, UniProt P10635).

The record followed here is ChEMBL document CHEMBL1201862, “PubChem BioAssay data set” (2004).

The source made the active and inactive calls. A value given as a limit tells only on which side of the number the result lay.

Sequence of Large T antigen (P03070 whole entry): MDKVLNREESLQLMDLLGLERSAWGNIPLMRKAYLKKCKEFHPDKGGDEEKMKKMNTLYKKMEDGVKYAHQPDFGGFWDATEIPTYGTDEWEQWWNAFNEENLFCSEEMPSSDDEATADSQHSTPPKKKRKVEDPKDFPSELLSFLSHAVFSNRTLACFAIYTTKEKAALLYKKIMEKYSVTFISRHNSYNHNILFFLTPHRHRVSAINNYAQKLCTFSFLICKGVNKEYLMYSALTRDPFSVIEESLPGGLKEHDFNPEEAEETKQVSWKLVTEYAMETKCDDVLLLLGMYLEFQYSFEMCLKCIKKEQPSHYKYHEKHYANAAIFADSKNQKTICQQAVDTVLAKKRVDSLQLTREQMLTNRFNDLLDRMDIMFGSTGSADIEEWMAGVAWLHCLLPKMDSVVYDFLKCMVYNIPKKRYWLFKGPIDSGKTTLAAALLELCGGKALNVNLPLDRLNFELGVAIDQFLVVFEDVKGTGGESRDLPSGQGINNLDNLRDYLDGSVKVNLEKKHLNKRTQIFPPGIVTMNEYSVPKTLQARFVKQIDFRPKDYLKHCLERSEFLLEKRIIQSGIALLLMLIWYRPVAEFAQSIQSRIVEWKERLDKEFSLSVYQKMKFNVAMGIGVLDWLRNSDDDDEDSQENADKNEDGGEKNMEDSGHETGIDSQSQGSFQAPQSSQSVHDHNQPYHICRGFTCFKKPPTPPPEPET
Sequence of FAD-linked sulfhydryl oxidase ALR (P55789 whole entry): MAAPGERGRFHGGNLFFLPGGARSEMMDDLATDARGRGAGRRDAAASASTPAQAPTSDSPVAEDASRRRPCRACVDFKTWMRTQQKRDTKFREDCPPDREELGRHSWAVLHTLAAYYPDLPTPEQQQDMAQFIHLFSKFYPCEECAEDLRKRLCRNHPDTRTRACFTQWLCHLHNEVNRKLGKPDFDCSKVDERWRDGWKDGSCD
Sequence of Cytochrome P450 2D6 (P10635 whole entry): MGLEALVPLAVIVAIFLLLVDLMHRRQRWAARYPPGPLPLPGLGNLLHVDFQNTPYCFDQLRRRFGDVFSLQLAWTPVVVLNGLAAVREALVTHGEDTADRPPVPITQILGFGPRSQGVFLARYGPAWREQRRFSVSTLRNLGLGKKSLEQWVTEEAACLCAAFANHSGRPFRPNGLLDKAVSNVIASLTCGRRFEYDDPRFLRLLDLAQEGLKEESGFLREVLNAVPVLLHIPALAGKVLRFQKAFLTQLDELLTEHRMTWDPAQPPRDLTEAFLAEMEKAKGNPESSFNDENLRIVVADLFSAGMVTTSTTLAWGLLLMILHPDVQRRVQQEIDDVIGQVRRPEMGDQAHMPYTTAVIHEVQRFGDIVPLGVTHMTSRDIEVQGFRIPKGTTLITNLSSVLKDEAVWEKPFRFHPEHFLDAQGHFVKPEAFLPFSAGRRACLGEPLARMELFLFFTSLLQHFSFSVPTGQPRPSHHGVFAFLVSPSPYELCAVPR

`COc1cc(C2OCC3C(c4ccc(OC5OC(CO)C(O)C(O)C5O)c(OC)c4)OCC23)ccc1O` (centres undefined): the IC50 at Large T antigen is 21.3 µM (active). The same measure, in the same setting: for `COc1ccc(N2CSC3=C(C#N)C(c4cc(OC)ccc4OC)CC(=O)N3C2)c(OC)c1` (centres undefined) the value was 63.1 µM (active). For `COC(=O)CN(C#N)c1nc(N(C)C)nc(N(C)C)n1`, in “cells [1]”, the IC50 is 9.57 µM (active).

In the case of `Cc1cc(C=C2C(=O)N(C)C(=S)N(C)C2=O)c(C)n1-c1ccncc1`, at Large T antigen, the half-maximal inhibitory concentration (IC50) is 50.2 µM (active). For the compound `O=C(NCCCN1CCCC1=O)C(=O)Nc1cccc(F)c1`, the EC50 in assay [2] is 0.233 µM (active); with H4, > 120 µM (not active). For `CCn1nnc(NC(=O)c2sc3ccccc3c2Cl)n1`, the 50% inhibitory concentration (IC50) in “cells [1]” is 19.2 µM (active). In the case of `CN(C)c1ccc(CNc2ccc3c(c2)ncn3C)cc1`, on Large T antigen, the IC50 was 22.1 µM (active). The AC50 in assay [3] was 1.78 µM (active). In the case of `CCOC(=O)c1cc(-c2csc(COc3ccc(Cl)cc3)n2)on1`, the IC50 in the assay “cells [1]” is < 0.1 µM (active). In the case of `COc1cccc(NC(=O)c2cc3c(=O)n4ccccc4nc3n(CC(C)C)c2=N)c1`, in assay [4], the half-maximal activity concentration (AC50) is 7.02 µM (active). In the case of `Cc1ccc(/C=C(\C#N)c2nn(-c3ccccc3)c(N)c2C#N)cc1`, the EC50 in “cells [5]” and in the assay “cells [6]” was > 350 µM (not active) each time. With `COc1cc(NS(=O)(=O)c2ccc(Br)cc2)c(OC)cc1NC(=O)c1ccco1`, the IC50 at Protein skinhead-1 is > 100 µM (inactive).

Consider `CCOc1ccc(-c2nnc(NC(=O)CCCOc3cccc(C)c3)o2)cc1`, for which the 50% inhibitory concentration (IC50) in “cells [1]” is 5.86 µM (active).

For the compound `Cc1ccc(N2NC(=O)/C(=C/C=C/c3ccco3)C2=O)cc1C`, in “cells [1]”, the IC50 was 13 µM (active).

For `Cc1nc2ccccc2cc1OCc1ccc(Cl)cc1`, the IC50 at Protein skinhead-1 is 57.9 µM (inactive).

For `CC(=O)O[C@H]1C[C@@]2(C)[C@@H](C[C@@H](O)[C@H]3[C@@]4(C)CC[C@@H](O)[C@@H](C)[C@@H]4CC[C@@]32C)/C1=C(/CCC=C(C)C)C(=O)O`, at Large T antigen, the concentration for half-maximal inhibition (IC50) was 31.6 µM (active). `COC(=O)COc1ccc(-c2nn(C)c(=O)c3ccccc23)cc1`: the concentration for half-maximal inhibition (IC50) in the assay “cells [1]” is 2.56 µM (active). For `O=C(Nc1nc(=O)c2ccccc2s1)c1ccc(F)cc1`, the EC50 in assay [2] is 0.107 µM (active); in the assay with H4, > 120 µM (not active).

For the compound `CNc1nc(-c2ccc3c(c2)CCN3C(=O)c2cccc(F)c2)cs1`, the EC50 in assay [2] is 1.41 µM (active); in the assay on H4, 4.2 µM (active).

With `C=CCn1c(N2CCCCCC2)nc2c1c(=O)[nH]c(=O)n2C`, the EC50 in “cells [5]” and in the assay “cells [6]” was > 350 µM (not active) throughout.

Turning to `COCCNC(=O)C(c1ccc(C)o1)N(Cc1ccc(OC)cc1)C(=O)Cn1nnc2ccccc21` (centres undefined), the IC50 on Protein skinhead-1 was > 100 µM (inactive). Still for that read-out and setting: as for `Clc1ccc(SCc2cc(-c3ccccc3)on2)cc1`, the figure is > 100 µM (inactive). With `CCn1nc(C(=O)OCC(=O)NC(C)C)c2ccccc2c1=O`, the EC50 in “cells [5]” is > 350 µM (not active); in [7], > 195 µM (not active); in “cells [6]”, > 350 µM (not active).

As for `CCOC(=O)c1cc(-c2cccs2)nc2c1c(C)nn2-c1ccccn1`, in assay [8], the CC50 is 16.4 µM (active). The results for the EC50 (in assay [9]; on Streptokinase A; in the assay with Streptococcus) were 13.1 µM (active), 122 µM (active) and 21.6 µM (active), respectively. The AC50 in [10] is 8.5 µM (active). As to `Cc1cc(C)c2c(N)c(C(=O)Nc3ccccc3F)sc2n1`, the EC50 in the assay “cells [5]” was > 350 µM (not active); in “cells [6]” it was 131 µM (active). For `O=C(COc1ccc(-c2ccccc2)cc1)Nc1cccnc1`, in the assay “cells [1]”, the half-maximal inhibitory concentration (IC50) is 4.39 µM (active). In the case of `Brc1ccc(CSc2nnc(-c3ccco3)o2)cc1`, the IC50 at Protein skinhead-1 is 8.76 µM (active). With `COc1cccc2cc(C(=O)NCc3ccc(F)cc3)c(=N)oc12`, the IC50 in “cells [1]” is > 50 µM (active). As to `CC1(C)C(=Cc2ccccc2)C(=O)c2ccccc21`, the IC50 on Protein skinhead-1 is 18 µM (active). As to `OC(c1ccccc1)C(O)C(c1ccccc1)N1CCCCC1` (centres undefined), the AC50 in assay [11] was 23.1 µM (active). On to `CCCS(=O)(=O)NC(=O)C1(C)CCN(C(=O)c2cccc(C)c2C)C1` (centres undefined), for which the IC50 at Protein skinhead-1 was > 100 µM (inactive).

Take `COc1cc(NS(=O)(=O)c2ccc(C)cc2)c2c(c1N)C(=O)c1ccccc1C2=O`: at Protein skinhead-1, the IC50 is > 100 µM (inactive). `COc1cc(/C=N/NC(=O)c2ccc3[nH]cnc3c2)ccc1O`: the IC50 on Large T antigen is 7.38 µM (active). Still for that read-out and setting: as for `COc1cc(/C(C)=N/NC(=O)CSc2nnc(C)s2)ccc1O`, the figure is 24.2 µM (active). For `O=C(COc1ccc(Cl)cc1Cl)N/N=C/CCc1ccccc1`, the EC50 in the assay “cells [5]” and in the assay “cells [6]” was > 350 µM (not active) in each case. In addition, the AC50 at Cytochrome P450 2D6 was 3.16 µM (inconclusive).
